Measurements as given in patent US6593480B2 (Abbott Laboratories, priority 1999, dated 2003).

Biological target: T1, Human glucocorticoid receptors (Homo sapiens, UniProt P04150)
T1 construct: made in house; host or cells: Sf9 insect cells, recombinant baculovirus (BAC-TO-BAC)
T1 sequence (P04150 1-777): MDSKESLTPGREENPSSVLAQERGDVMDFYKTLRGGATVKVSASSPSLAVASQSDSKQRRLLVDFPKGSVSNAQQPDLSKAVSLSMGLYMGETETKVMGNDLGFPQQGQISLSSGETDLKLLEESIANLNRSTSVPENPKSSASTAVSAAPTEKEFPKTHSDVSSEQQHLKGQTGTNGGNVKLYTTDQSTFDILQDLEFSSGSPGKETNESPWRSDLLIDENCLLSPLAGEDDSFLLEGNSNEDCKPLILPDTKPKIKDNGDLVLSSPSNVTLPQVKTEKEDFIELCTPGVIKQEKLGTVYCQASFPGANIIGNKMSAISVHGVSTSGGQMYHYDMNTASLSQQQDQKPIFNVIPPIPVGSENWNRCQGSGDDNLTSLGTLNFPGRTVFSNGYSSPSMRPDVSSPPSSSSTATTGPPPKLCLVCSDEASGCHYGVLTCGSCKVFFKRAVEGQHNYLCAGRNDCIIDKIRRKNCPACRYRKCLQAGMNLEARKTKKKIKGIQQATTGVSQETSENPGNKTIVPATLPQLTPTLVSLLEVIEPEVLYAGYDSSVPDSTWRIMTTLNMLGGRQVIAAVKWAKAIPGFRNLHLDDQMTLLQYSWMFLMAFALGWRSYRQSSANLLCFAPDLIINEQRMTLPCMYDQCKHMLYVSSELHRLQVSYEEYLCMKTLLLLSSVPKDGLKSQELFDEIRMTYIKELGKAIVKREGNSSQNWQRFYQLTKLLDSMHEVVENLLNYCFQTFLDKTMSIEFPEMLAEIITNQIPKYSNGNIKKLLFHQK
Assay: Radioligand filter binding assay, displacement of 3(H)-dexamethasone from human glucocorticoid receptor cytosol
Settings: 1.7 μM test compound; inhibition of 3(H)-dex binding to hGR

First: COc1cccc2c1-c1ccc(NC(=O)C3CC3)cc1C(c1ccccc1)O2 (centres unmarked) [Example 16, (1-methoxy-6-phenyl-6H-dibenzo(b,d)pyran-8-yl)cyclopropanecarboxamide]
Second: COc1cccc2c1-c1ccc(NS(C)(=O)=O)cc1C(c1cccc(O)c1)O2 (centres unmarked) [Example 34, (1-methoxy-6-(3-hydroxy)phenyl-6H-dibenzo(b,d)pyran-8-yl)-methanesulfonamide]
The “GR BINDING (% Inhibition @ 1.7 μM)” value of the first is lower: 74.3% for the first, 81.6% for the second.

For `C=CCCCc1cccc(C2Oc3cccc(OC)c3-c3ccc(NS(C)(=O)=O)cc32)c1` (centres unmarked) [Example 111, N-{1-nethoxy-6-[3-(4-pentenyl)phenyl]-6H-benzo[c]chromen-8-yl}methanesulfonamide], the “GR BINDING (% Inhibition @ 1.7 μM)” value was 87.4%.

Same assay, conditions: 1.7 μM test compound; inhibition of 3(H)-dex binding to hGR; read-out: GR BINDING (% Inhibition @ 1.7 μM)

Compared with `COc1cccc2c1-c1ccc(NS(C)(=O)=O)cc1C(c1cccc(CCCCC#N)c1)O2` (centres unmarked) [Example 113, N-{6-[3-(4-cyanobutyl)phenyl]-1-methoxy-6H-benzo[c]chromen-8-yl}methanesulfonamide], `COc1cccc2c1-c1ccc(NS(C)(=O)=O)cc1C(c1cccc(-c3ccc(C(=O)O)cc3)c1)O2` (centres unmarked) [Example 122, 3′-{1-methoxy-8-[(methylsulfonyl)amino]-6H-benzo[c]chromen-6-yl}[1,1′-biphenyl]-4-carboxylic acid] is lower in inhibition at 1.7 µM: 87.7% for the first, 63.8% for the second.

Going from `CC(=O)c1cccc2c1-c1ccc(NS(C)(=O)=O)cc1C(c1ccccc1)O2` (centres unmarked) [Example 38] to `C=CCOc1ccc2c(c1OC)-c1ccc(NS(C)(=O)=O)cc1C(c1ccccc1)O2` (centres unmarked) [Example 105, N-[2-(allyloxy)-1-methoxy-6-phenyl-6H-benzo[c]chromen-8-yl]methanesulfonamide], the inhibition at 1.7 µM rises from 58.9% to 83.5%.

Going from `COc1cccc2c1-c1ccc(NS(C)(=O)=O)cc1C(/C=C/c1ccccc1)O2` (centres unmarked) [Example 89, N-{1-methoxy-6-[(E)-2-phenylethenyl]-6H-benzo[c]chromen-8-yl}methanesulfonamide] to `COCCOCOc1ccc2c(c1OC)-c1ccc(NS(C)(=O)=O)cc1C(c1ccccc1)O2` (centres unmarked) [Example 106, N-{1-methoxy-2-[(2-methoxyethoxy)methoxy]-6-phenyl-6H-benzo[c]chromen-8-yl}methanesulfonamide], the inhibition at 1.7 µM falls from 86.1% to 42.7%.

Biological target: T2, progesterone receptor (PR) (Homo sapiens, UniProt P06401)
T2 sequence (P06401 1-933): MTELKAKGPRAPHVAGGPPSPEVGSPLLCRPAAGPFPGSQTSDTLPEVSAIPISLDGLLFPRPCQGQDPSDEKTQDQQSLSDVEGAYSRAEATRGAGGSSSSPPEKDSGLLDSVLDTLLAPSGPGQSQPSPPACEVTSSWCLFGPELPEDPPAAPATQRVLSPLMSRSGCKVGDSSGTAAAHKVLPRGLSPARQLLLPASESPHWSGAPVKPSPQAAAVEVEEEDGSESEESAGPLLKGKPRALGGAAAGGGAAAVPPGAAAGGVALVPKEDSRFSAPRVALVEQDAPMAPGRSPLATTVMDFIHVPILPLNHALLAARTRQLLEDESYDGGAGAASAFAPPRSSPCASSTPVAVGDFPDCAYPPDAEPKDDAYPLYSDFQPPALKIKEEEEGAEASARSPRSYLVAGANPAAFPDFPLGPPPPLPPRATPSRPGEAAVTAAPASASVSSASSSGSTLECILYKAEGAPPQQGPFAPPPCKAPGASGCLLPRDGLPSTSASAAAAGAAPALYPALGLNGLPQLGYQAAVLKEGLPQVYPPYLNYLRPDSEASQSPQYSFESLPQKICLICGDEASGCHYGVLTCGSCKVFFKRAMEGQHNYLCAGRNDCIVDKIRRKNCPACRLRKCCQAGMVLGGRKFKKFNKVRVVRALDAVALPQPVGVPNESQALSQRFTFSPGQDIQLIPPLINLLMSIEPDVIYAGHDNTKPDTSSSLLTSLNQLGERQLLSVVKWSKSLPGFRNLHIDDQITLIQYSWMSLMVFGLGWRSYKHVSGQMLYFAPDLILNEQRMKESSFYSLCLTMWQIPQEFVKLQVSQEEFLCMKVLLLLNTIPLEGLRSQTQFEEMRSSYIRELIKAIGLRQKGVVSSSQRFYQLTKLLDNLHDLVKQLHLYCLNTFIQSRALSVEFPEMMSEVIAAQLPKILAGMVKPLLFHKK
Assay: Radioligand binding assay with progesterone receptor cytosol (similar protocol)
Settings: not given
From the text: Methods for Radioligand Binding Studies with Human Glucocorticoid and Progesterone Receptor Cytosol
A similar protocol was employed to measure affinity of the compounds of the present invention for progesterone receptor (PR).

First: COc1cccc(-c2cccc(C3Oc4cccc(OC)c4-c4ccc(NS(C)(=O)=O)cc43)c2)c1 (centres unmarked) [Example 124, N-[1-methoxy-6-(3′-methoxyl[1,1′-biphenyl]-3-yl)-6H-benzo[c]chromen-8-yl]methanesulfonamide]
Second: COc1cccc2c1-c1ccc(NS(C)(=O)=O)cc1C(c1cccc(Br)c1)O2 (centres unmarked) [Example 82, N-[6-(3-bromophenyl)-1-methoxy-6H-benzo[c]chromen-8-yl]methanesulfonamide]
The IC50 of the first is higher: over 10 µM for the first, 0.3 µM for the second.

Compared with “(1-ethoxy-6-phenyl-6H-dibenzo(b,d)pyran-8-yl)methanesulfonamide [Example 44]”, `CS(=O)(=O)Nc1ccc2c(c1)C(c1cccc(CCCCCCC#N)c1)Oc1cccc(OC(F)F)c1-2` (centres unmarked) [Example 137, N-[6-[3-(6-cyanohexyl)phenyl]-1-(difluoromethoxy)-6H-benzo[c]chromen-8-yl]methanesulfonamide] is higher in IC50: 6.9 µM for the first, over 10 µM for the second.

Compared with `COc1cccc(C2Oc3cccc(OC(F)F)c3-c3ccc(NS(C)(=O)=O)cc32)c1` (centres unmarked) [Example 108, N-[1-(difluoromethoxy)-6-(3-methoxyphenyl)-6H-benzo[c]chromen-8-yl]methanesulfonamide], `COc1cccc2c1-c1ccc(NS(C)(=O)=O)cc1C(c1ccc(C#CCCCO)s1)O2` (centres unmarked) [Example 102, N-{6-[5-(5-hydroxy-1-pentynyl)-2-thienyl]-1-methoxy-6H-benzo[c]chromen-8-yl}methanesulfonamide] is higher in IC50: 0.17 µM for the first, over 1 µM for the second.

Compared with `COc1cccc2c1-c1ccc(NS(C)(=O)=O)cc1C(c1ccsc1)O2` (centres unmarked) [Example 97, N-[1-methoxy-6-(3-thienyl)-6H-benzo[c]chromen-8-yl]methanesulfonamide], `CCCS(=O)(=O)N(C)c1cccc(C2Oc3cccc(OC)c3-c3ccc(NS(C)(=O)=O)cc32)c1` (centres unmarked) [Example 132, N-(3-{1-methoxy-8-[(methylsulfonyl)amino]-6H-benzo[c]chromen-6-yl}phenyl)-N-methyl-1-propanesulfonamide] is higher in IC50: 0.18 µM for the first, over 10 µM for the second.

First: COc1cccc2c1-c1ccc(NS(C)(=O)=O)cc1C(c1cccc(-c3ccc(O)cc3)c1)O2 (centres unmarked) [Example 128, N-[6-(4′-hydroxy[1,1′-biphenyl]-3-yl)-1-methoxy-6H-benzo[c]chromen-8-yl]methanesulfonamide]
Second: CCOCCCc1cccc(C2Oc3cccc(OC(F)F)c3-c3ccc(NS(C)(=O)=O)cc32)c1 (centres unmarked) [Example 120, N-{1-(difluoromethoxy)-6-[3-(3-ethoxypropyl)phenyl]-6H-benzo[c]chromen-8-yl}methanesulfonamide]
The IC50 of the first is 1.8-fold higher: 0.88 µM for the first, 0.5 µM for the second. The second is the more potent here.

Going from `CS(=O)(=O)Nc1ccc2c(c1)C(c1cccc(F)c1)Oc1cccc(OC(F)F)c1-2` (centres unmarked) [Example 107, N-[1-(difluoromethoxy)-6-(3-fluorophenyl)-6H-benzo[c]chromen-8-yl]methanesulfonamide] to `C=CCOc1ccc(C2Oc3cccc(OC)c3-c3ccc(NS(C)(=O)=O)cc32)cc1` (centres unmarked) [Example 32, (1methoxy-6-(4-allyloxy)phenyl-6H-dibenzo(b,d)pyran-8-yl)-methanesulfonamide], the IC50 rises from 0.06 µM to over 10 µM.

First: COc1cccc2c1-c1ccc(CS(N)(=O)=O)cc1C(c1cccc(Cl)c1)O2 (centres unmarked) [Example 60, (1-methoxy-6-(3-chlorophenyl)-6H-dibenzo(b,d)pyran-8-yl)methanesulfonamide]
Second: CS(=O)(=O)Nc1ccc2c(c1)C(c1cccc(-c3ccccc3Cl)c1)Oc1cccc(OC(F)F)c1-2 (centres unmarked) [Example 146, N-[6-(2′-chloro[1,1′-biphenyl]-3-yl)-1-(difluoromethoxy)-6H-benzo[c]chromen-8-yl]methanesulfonamide]
The IC50 of the first is 1.9-fold higher: 0.5 µM for the first, 0.26 µM for the second.

First: COc1cccc2c1-c1ccc(NS(=O)(=O)c3ccccc3F)cc1C(c1ccccc1)O2 (centres unmarked) [Example 18]
Second: COc1ccc(Br)c2c1-c1ccc(NS(C)(=O)=O)cc1C(c1ccccc1)O2 (centres unmarked) [Example 154, N-(4-bromo-1-methoxy-6-phenyl-6H-benzo[c]chromen-8-yl)methanesulfonamide]
The IC50 of the first is higher: over 10 µM for the first, 0.68 µM for the second.

`CNc1cccc(C2Oc3cccc(OC)c3-c3ccc(NS(C)(=O)=O)cc32)c1` (centres unmarked) [Example 81, N-{1-methoxy-6-[3-(methylamino)phenyl]-6H-benzo[c]chromen-8-yl}methanesulfonamide] and `COc1cccc2c1-c1ccc(NS(C)(=O)=O)cc1C(c1cccc(/C=C/c3ccccc3)c1)O2` (centres unmarked) [Example 99, N-(1-methoxy-6-{3-[(E)-2-phenylethenyl]phenyl}-6H-benzo[c]chromen-8-yl)methanesulfonamide] cannot be ordered by IC50: 9.36 µM for the first, over 1 µM for the second.

First: Nc1ccc2c(c1Br)C(c1ccccc1)Oc1cccc(OC(F)F)c1-2 (centres unmarked) [Example 4, 8-Amino-7-bromo-1-difluoromethoxy-6-phenyl-6H-dibenzo[b,d]pyran]
Second: CCOC(=O)CCCCCc1cccc(C2Oc3cccc(OC(F)F)c3-c3ccc(NS(C)(=O)=O)cc32)c1 (centres unmarked) [Example 119, ethel 6-(3-{1-(difluoromethoxy)-8-[(methylsulfonyl)amino]-6H-benzo[c]chromen-6-yl}phenyl)hexanoate]
The IC50 of the first is 4.3-fold lower: 0.46 µM for the first, 1.96 µM for the second. The first is the more potent here.
